Test results taken from patent US20240408169A1 (priority 2023, published 2024).
*1 amine or outer side, *2 acyl side, *3 side chain or, on linkers, in order; H or OH if unused. Where a SMILES comes first, the peptide text is derived from it. Bridges are numbered along the chain shown (N, C = ends). [ ]: non-standard residue; d: D form. The star is where a group is joined. X127 = CN([C@@H](Cc1cc(F)ccc1-c1cnn(S(=O)(=O)C2CC2)c1)C(=O)[*:2])[*:1]; X142 = CN([C@@H](Cc1cc(Cl)ccc1C1=CCN(S(C)(=O)=O)CC1)C(=O)[*:2])[*:1]; NMehhhLys(Me) = CN([C@@H](CCCCCCCN(C)[*:3])C(=O)[*:2])[*:1]; X118 = Cc1cc(-c2ccc(Cl)cc2C[C@@H](C(=O)[*:2])N(C)[*:1])cnn1; X117 = Cc1cc(-c2ccc(F)cc2C[C@@H](C(=O)[*:2])N(C)[*:1])cnn1; X194 = CN([C@@H](Cc1cc(Cl)ccc1-c1ccnnc1)C(=O)[*:2])[*:1]; X176 = CN([C@@H](Cc1cc(F)ccc1-c1cccnc1)C(=O)[*:2])[*:1]; X204 = CN([C@@H](Cc1cc(F)ccc1-c1ccnnc1)C(=O)[*:2])[*:1]; NMe(hhhLys) = CN([C@@H](CCCCCCCN[*:3])C(=O)[*:2])[*:1]; NMe3Pal(2-OMe,5-Cl) = CN[C@@H](Cc1cc(Cl)cnc1OC)C(=O)O; Oxane2carbonyl(2R-CF3) = O=C([C@@]1(C(F)(F)F)CCCCO1)*; cBuCO(3,3-F2-1-CF3) = O=C(C1(C(F)(F)F)CC(F)(F)C1)*; Pro(trans-4-F) = O=C(O)[C@@H]1C[C@@H](F)CN1; Gly(cPr) = N[C@H](C(=O)O)C1CC1

Tests used:
[1] = test system: OVCAR3 cells; assay: MTT proliferation assay, OVCAR3; format: cell-based; settings: 5 days compound exposure, 1:3 serial dilution starting at 10 μM;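 note: compound given as an 8- or 10-point series, one day after plating, with exposure covering roughly 3-4 cell doublings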
[2] = biological target: T1, CyclinB1/CDK1 (Homo sapiens, UniProt P14635); assay: Fluorescence Polarization (FP) competitive binding assay, Cyclin B1/Cdk1; settings: 10 nM Cyclin B1/Cdk1, 2 nM FAM probe; average of 2-3 independent experiments; read-out: Cyclin B FP IC50;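 note: fluorescence polarization read after equilibration at room temperature, with IC50 taken from serially diluted dose-response curves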
T1 construct: purchased Eurofins, discovery 14-450

[3] = biological target: T2, CyclinA2/CDK2 (Homo sapiens, UniProt P20248); assay: Fluorescence Polarization (FP) competitive binding assay, Cyclin A2/Cdk2; settings: 8 nM Cyclin A2/Cdk2, 2 nM FAM probe; average of 2-3 independent experiments; read-out: Cyclin A FP IC50;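 note: plates equilibrated two hours at room temperature before polarization reading, IC50 fitted from eight-concentration compound titration curves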
T2 construct: purchased CRELUX Protein Services

[4] = test system: NCI-H1048 cells; assay: MTT proliferation assay, NCI-H1048; format: cell-based; settings: 5 days compound exposure, 1:3 serial dilution starting at 10 μM;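 note: Dose-response in 96-well plates over 8 or 10 concentration points, with exposure spanning 3-4 cell doublings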
[5] = biological target: T3, CyclinE1/CDK2 (Homo sapiens, UniProt P24864); assay: Fluorescence Polarization (FP) competitive binding assay, Cyclin E1/Cdk2; settings: 10 nM Cyclin E1/Cdk2, 2 nM FAM probe; average of 2-3 independent experiments; read-out: Cyclin E FP IC50;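 note: readings taken after two-hour equilibration at room temperature in HEPES buffer with NaCl, DTT, NP-40 and BSA, IC50 fitted from eight-concentration serial dilution series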
T3 construct: purchased Eurofins, discovery 14-475

Compound: COc1ncc(Cl)cc1C[C@H]1C(=O)NCCCCCCC[C@H](N(C)C(=O)[C@@H](NC(=O)[C@@H]2C[C@@H](F)CN2C(=O)C2(C(F)(F)F)CC(F)(F)C2)C2CC2)C(=O)N[C@@H](CC(C)C)C(=O)N1C [Example 275] ({cBuCO(3,3-F2-1-CF3)}-[Pro(trans-4-F)][Gly(cPr)][NMe(hhhLys)]L[NMe3Pal(2-OMe,5-Cl)]; lactam 3-C)
- GI50 [1]: 10 nM
- IC50 [2]: 20 nM
- IC50 [3]: 50 nM
- GI50 [4]: 10 nM
- IC50 [5]: 230 nM

Compound: CC(C)C[C@@H]1NC(=O)[C@@H](N(C)C(=O)[C@@H](NC(=O)[C@@H]2C[C@@H](F)CN2C(=O)C2(C(F)(F)F)CC(F)(F)C2)C2CC2)C/C=C\CCCCN(C)C(=O)[C@H](Cc2cc(F)ccc2-c2cnn(S(C)(=O)=O)c2)N(C)C1=O [Example 278]
- GI50 [1]: 10 nM
- IC50 [2]: 20 nM
- IC50 [3]: 70 nM
- GI50 [4]: 10 nM
- IC50 [5]: 280 nM

Compound: CC(C)C[C@@H]1NC(=O)[C@@H](N(C)C(=O)[C@@H](NC(=O)[C@@H]2C[C@@H](F)CN2C(=O)C2(C(F)(F)F)CC(F)(F)C2)C2CC2)CCCCCCCN(C)C(=O)[C@H](Cc2cc(F)ccc2-c2ccnnc2)N(C)C1=O [Example 279] ({cBuCO(3,3-F2-1-CF3)}-[Pro(trans-4-F)][Gly(cPr)][NMehhhLys(Me)]L[X204]; lactam 3-C)
- GI50 [1]: 90 nM
- IC50 [2]: 20 nM
- IC50 [3]: 100 nM
- GI50 [4]: 80 nM
- IC50 [5]: 1920 nM

Compound: CC(C)C[C@@H]1NC(=O)[C@@H](N(C)C(=O)[C@@H](NC(=O)[C@@H]2C[C@@H](F)CN2C(=O)C2(C(F)(F)F)CC(F)(F)C2)C2CC2)CCCCCCCNC(=O)[C@H](Cc2cc(F)ccc2-c2cccnc2)N(C)C1=O [Example 280] ({cBuCO(3,3-F2-1-CF3)}-[Pro(trans-4-F)][Gly(cPr)][NMe(hhhLys)]L[X176]; lactam 3-C)
- GI50 [1]: 10 nM
- IC50 [2]: 20 nM
- IC50 [3]: 40 nM
- GI50 [4]: 10 nM
- IC50 [5]: 320 nM

Compound: CC(C)C[C@@H]1NC(=O)[C@@H](N(C)C(=O)[C@@H](NC(=O)[C@@H]2C[C@@H](F)CN2C(=O)C2(C(F)(F)F)CC(F)(F)C2)C2CC2)CCCCCCCNC(=O)[C@H](Cc2cc(F)ccc2-c2cnn(S(=O)(=O)C3CC3)c2)N(C)C1=O [Example 281] ({cBuCO(3,3-F2-1-CF3)}-[Pro(trans-4-F)][Gly(cPr)][NMe(hhhLys)]L[X127]; lactam 3-C)
- GI50 [1]: 20 nM
- IC50 [2]: 20 nM
- IC50 [3]: 40 nM
- GI50 [4]: 10 nM
- IC50 [5]: 530 nM

Compound: CC(C)C[C@@H]1NC(=O)[C@@H](N(C)C(=O)[C@@H](NC(=O)[C@@H]2C[C@@H](F)CN2C(=O)[C@@]2(C(F)(F)F)CCCCO2)C2CC2)CCCCCCCN(C)C(=O)[C@H](Cc2cc(F)ccc2-c2cnn(S(=O)(=O)C3CC3)c2)N(C)C1=O [Example 282] ({Oxane2carbonyl(2R-CF3)}-[Pro(trans-4-F)][Gly(cPr)][NMehhhLys(Me)]L[X127]; lactam 3-C)
- GI50 [1]: 10 nM
- IC50 [2]: 20 nM
- IC50 [3]: 30 nM
- GI50 [4]: 10 nM
- IC50 [5]: 100 nM

Compound: CC(C)C[C@@H]1NC(=O)[C@@H](N(C)C(=O)[C@@H](NC(=O)[C@@H]2C[C@@H](F)CN2C(=O)C2(C(F)(F)F)CC(F)(F)C2)C2CC2)CCCCCCCNC(=O)[C@H](Cc2cc(Cl)ccc2C2=CCN(S(C)(=O)=O)CC2)N(C)C1=O [Example 284] ({cBuCO(3,3-F2-1-CF3)}-[Pro(trans-4-F)][Gly(cPr)][NMe(hhhLys)]L[X142]; lactam 3-C)
- GI50 [1]: 10 nM
- IC50 [2]: 20 nM
- IC50 [3]: 20 nM
- GI50 [4]: 10 nM
- IC50 [5]: 1740 nM

Compound: CC(C)C[C@@H]1NC(=O)[C@@H](N(C)C(=O)[C@@H](NC(=O)[C@@H]2C[C@@H](F)CN2C(=O)C2(C(F)(F)F)CC(F)(F)C2)C2CC2)CCCC=CCCNC(=O)[C@H](Cc2cc(Cl)ccc2-c2cnn(C)c2)N(C)C1=O [Example 285]
- GI50 [1]: 30 nM
- IC50 [2]: 20 nM
- IC50 [3]: 60 nM
- GI50 [4]: 50 nM
- IC50 [5]: 1700 nM

Compound: CC(C)C[C@@H]1NC(=O)[C@@H](N(C)C(=O)[C@@H](NC(=O)[C@@H]2C[C@@H](F)CN2C(=O)C2(C(F)(F)F)CC(F)(F)C2)C2CC2)CCCC=CCCNC(=O)[C@H](Cc2cc(Cl)ccc2-c2cnn(C3CC3)c2)N(C)C1=O [Example 287]
- GI50 [1]: 40 nM
- IC50 [2]: 20 nM
- IC50 [3]: 60 nM
- GI50 [4]: 40 nM
- IC50 [5]: 1940 nM

Compound: CC(C)C[C@@H]1NC(=O)[C@@H](N(C)C(=O)[C@@H](NC(=O)[C@@H]2C[C@@H](F)CN2C(=O)C2(C(F)(F)F)CC(F)(F)C2)C2CC2)CCCCCCCNC(=O)[C@H](Cc2cc(F)ccc2-c2ccnnc2)N(C)C1=O [Example 290] ({cBuCO(3,3-F2-1-CF3)}-[Pro(trans-4-F)][Gly(cPr)][NMe(hhhLys)]L[X204]; lactam 3-C)
- GI50 [1]: 150 nM
- IC50 [2]: 20 nM
- IC50 [3]: 120 nM
- GI50 [4]: 80 nM
- IC50 [5]: 1790 nM

Compound: CC(C)C[C@@H]1NC(=O)[C@@H](N(C)C(=O)[C@@H](NC(=O)[C@@H]2C[C@@H](F)CN2C(=O)C2(C(F)(F)F)CC(F)(F)C2)C2CC2)CCCCCCCNC(=O)[C@H](Cc2cc(Cl)ccc2-c2ccnnc2)N(C)C1=O [Example 291] ({cBuCO(3,3-F2-1-CF3)}-[Pro(trans-4-F)][Gly(cPr)][NMe(hhhLys)]L[X194]; lactam 3-C)
- GI50 [1]: 150 nM
- IC50 [2]: 20 nM
- IC50 [3]: 70 nM
- GI50 [4]: 120 nM
- IC50 [5]: 5160 nM

Compound: CC(C)C[C@@H]1NC(=O)[C@@H](N(C)C(=O)[C@@H](NC(=O)[C@@H]2C[C@@H](F)CN2C(=O)C2(C(F)(F)F)CC(F)(F)C2)C2CC2)CCCCCCCN(C)C(=O)[C@H](Cc2cc(Cl)ccc2-c2ccnnc2)N(C)C1=O [Example 292] ({cBuCO(3,3-F2-1-CF3)}-[Pro(trans-4-F)][Gly(cPr)][NMehhhLys(Me)]L[X194]; lactam 3-C)
- GI50 [1]: 110 nM
- IC50 [2]: 20 nM
- IC50 [3]: 60 nM
- GI50 [4]: 70 nM
- IC50 [5]: 2880 nM

Compound: Cc1cc(-c2ccc(F)cc2C[C@H]2C(=O)N(C)CCCCCCC[C@H](N(C)C(=O)[C@@H](NC(=O)[C@@H]3C[C@@H](F)CN3C(=O)C3(C(F)(F)F)CC(F)(F)C3)C3CC3)C(=O)N[C@@H](CC(C)C)C(=O)N2C)cnn1 [Example 293] ({cBuCO(3,3-F2-1-CF3)}-[Pro(trans-4-F)][Gly(cPr)][NMehhhLys(Me)]L[X117]; lactam 3-C)
- GI50 [1]: 90 nM
- IC50 [2]: 20 nM
- IC50 [3]: 100 nM
- GI50 [4]: 50 nM
- IC50 [5]: 1990 nM

Compound: Cc1cc(-c2ccc(F)cc2C[C@H]2C(=O)NCCCCCCC[C@H](N(C)C(=O)[C@@H](NC(=O)[C@@H]3C[C@@H](F)CN3C(=O)C3(C(F)(F)F)CC(F)(F)C3)C3CC3)C(=O)N[C@@H](CC(C)C)C(=O)N2C)cnn1 [Example 294] ({cBuCO(3,3-F2-1-CF3)}-[Pro(trans-4-F)][Gly(cPr)][NMe(hhhLys)]L[X117]; lactam 3-C)
- GI50 [1]: 130 nM
- IC50 [2]: 20 nM
- IC50 [3]: 80 nM
- GI50 [4]: 80 nM
- IC50 [5]: 1440 nM

Compound: Cc1cc(-c2ccc(Cl)cc2C[C@H]2C(=O)NCCCCCCC[C@H](N(C)C(=O)[C@@H](NC(=O)[C@@H]3C[C@@H](F)CN3C(=O)C3(C(F)(F)F)CC(F)(F)C3)C3CC3)C(=O)N[C@@H](CC(C)C)C(=O)N2C)cnn1 [Example 295] ({cBuCO(3,3-F2-1-CF3)}-[Pro(trans-4-F)][Gly(cPr)][NMe(hhhLys)]L[X118]; lactam 3-C)
- GI50 [1]: 160 nM
- IC50 [2]: 20 nM
- IC50 [3]: 70 nM
- GI50 [4]: 80 nM
- IC50 [5]: 3690 nM

Compound: Cc1cc(-c2ccc(Cl)cc2C[C@H]2C(=O)N(C)CCCCCCC[C@H](N(C)C(=O)[C@@H](NC(=O)[C@@H]3C[C@@H](F)CN3C(=O)C3(C(F)(F)F)CC(F)(F)C3)C3CC3)C(=O)N[C@@H](CC(C)C)C(=O)N2C)cnn1 [Example 296] ({cBuCO(3,3-F2-1-CF3)}-[Pro(trans-4-F)][Gly(cPr)][NMehhhLys(Me)]L[X118]; lactam 3-C)
- GI50 [1]: 100 nM
- IC50 [2]: 20 nM
- IC50 [3]: 70 nM
- GI50 [4]: 70 nM
- IC50 [5]: 2810 nM

Compound: CC(C)C[C@@H]1NC(=O)[C@@H](N(C)C(=O)[C@@H](NC(=O)[C@@H]2C[C@@H](F)CN2C(=O)C2(C(F)(F)F)CC(F)(F)C2)C2CC2)C/C=C\CCCCN(C)C(=O)[C@H](Cc2cc(Cl)ccc2-c2cnn(S(C)(=O)=O)c2)N(C)C1=O [Example 298]
- GI50 [1]: 20 nM
- IC50 [2]: 20 nM
- IC50 [3]: 50 nM
- GI50 [4]: 10 nM
- IC50 [5]: 440 nM
